The structures appear in SMILES notation.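 Growth conditions: 96-well plates. Treatment: test compound, 48 hours, 5 concentrations. Analysis: linear interpolation between bracketing concentrations; unreached endpoints set to highest concentration. Definition used: TGI = concentration required for complete inhibition of growth.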

What all share (assay): NCI tumour cell line growth inhibition, 48 h
For experiment [1], the system named is SK-OV-3 ovarian.
Experiment [2] concerns 786-0 renal.
Experiment [3] concerns SNB-19 CNS.
Experiment [4] concerns SW-620 colon.
Experiment [5] deals with HCT-15 colon.
Experiment [6] relates to SK-MEL-2 melanoma.
For experiment [7], the system named is OVCAR-5 ovarian.
Experiment [8] has as its system OVCAR-8 ovarian.
Experiment [9] has as its system HCT-116 colon.
For experiment [10], the system named is CAKI-1 renal.
In experiment [11] the test system is MDA-N.
For experiment [12], the system named is HCC-2998 colon.
Experiment [13] concerns NCI-H460 lung.
For experiment [14], the system named is OVCAR-3 ovarian.

For `N#Cc1c(-c2ccc(Cl)cc2Cl)nc2[nH][nH]c(=S)n2c1=O`, the TGI in experiment [1], in experiment [2], in experiment [3], in experiment [4], in [5] and in experiment [6] was above 100 µM in each case. Moreover, the TGI in experiment [7], in experiment [8], in [9], in experiment [10], in experiment [11] and in [12] was above 100 µM each time. Also, the TGI in experiment [13] was above 100 µM.
Turning to `O=[N+]([O-])c1ccc2c(c1)C1=C(CO2)Cc2ccccc2O1`, the TGI in experiment [1] is above 100 µM; in experiment [2] it was 39.9 µM; in [4], 53.5 µM; in experiment [5], 31.2 µM; in experiment [6], above 100 µM; in [7], 54.7 µM. For the same compound, the TGI in experiment [8] was above 100 µM; in [9] it was 30 µM; in [10], 31.4 µM; in experiment [11] it was 33.1 µM; in [12] it was 35.3 µM; in experiment [14], 41.6 µM.
Consider `O=C(Nc1nc(C23CC4CC(CC(C4)C2)C3)cs1)c1cc2ccc(O)cc2oc1=O`, for which the TGI came out at 23.8 µM in [2]; 80.6 µM in experiment [3]; 22 µM in [4]; 47.6 µM in [5]; 48.5 µM in [7]; 90.9 µM in experiment [8]. For the same compound, the TGI in experiment [9] was 25.6 µM; in experiment [10], above 100 µM; in experiment [11] it was 41.3 µM; in [12], 43.3 µM; in experiment [14], 60.5 µM; in [13], 52.7 µM.
For `COC(CNC(=O)C(C)NC(=O)/C=C/c1ccccc1)OC` (configuration not stated), the TGI in [1], in experiment [2], in experiment [3], in experiment [4], in [5] and in experiment [6] was above 100 µM in each case. For the same compound, the TGI in experiment [7], in experiment [8], in [9], in experiment [10], in experiment [11] and in experiment [13] was above 100 µM each time.
Turning to `OC1C#CCSCC#C/C=C\1` (configuration not stated), the TGI in experiment [1] was above 100 µM; in experiment [2], 39.5 µM; in experiment [3], above 100 µM; in experiment [4], 36.6 µM; in experiment [5] it was above 100 µM; in experiment [6], above 100 µM. Besides, the TGI was above 100 µM in experiment [7]; 77 µM in experiment [8]; above 100 µM in [9]; above 100 µM in [11]; above 100 µM in experiment [12]; above 100 µM in experiment [14]. For the same compound, the TGI in experiment [13] is 36.5 µM.
Turning to `Cc1nn(-c2ccccc2)c2c1C(c1ccc(Cl)cc1)NC(=S)N2` (configuration not stated), the TGI in experiment [1] was 59.8 µM; in experiment [2] it was 36.8 µM; in experiment [3], above 100 µM; in [4] it was 71.1 µM; in experiment [5], 37.7 µM; in experiment [6] it was 38.6 µM. Further, the TGI was 89.4 µM in [7]; 43.3 µM in [8]; above 100 µM in experiment [9]; above 100 µM in experiment [10]; 93.6 µM in experiment [11]; above 100 µM in experiment [14]. In experiment [13], the TGI was 60 µM.
`COc1ccc(P2(=S)OC(C)(C)C(C)(C)O2)cc1`: the TGI in [2], in [3], in experiment [4], in [5], in experiment [6] and in experiment [7] was above 100 µM in each case. Besides, the TGI in experiment [8], in experiment [9], in [10], in experiment [11], in experiment [14] and in experiment [13] was above 100 µM in each case.
Take `Nc1ncnc2c1ncn2[C@@H]1C[C@@H]1CO`: the TGI in [2], in experiment [3], in [4], in experiment [5], in [6] and in experiment [7] was above 100 µM throughout. The TGI in experiment [8], in [9], in [11], in [12], in [14] and in experiment [13] was above 100 µM each time.
As for `Cn1cc(NC(=O)Nc2cc(C(=O)Nc3cc(C(=O)Nc4ccc(S(=O)(=O)O)c5cc(S(=O)(=O)O)ccc45)n(C)c3)n(C)c2)cc1C(=O)Nc1cc(C(=O)Nc2ccc(S(=O)(=O)O)c3cc(S(=O)(=O)O)ccc23)n(C)c1`, the TGI in experiment [1], in experiment [2], in experiment [3], in experiment [4], in experiment [5] and in [7] was above 100 µM in each case. Besides, the TGI in [8], in [9], in experiment [11], in experiment [12], in [14] and in [13] was above 100 µM each time.
Take `COC(=O)c1ccccc1/C=C1\Cc2ccc(C)c(C)c2C1=O`: the TGI in [2], in experiment [3], in experiment [4], in experiment [5], in experiment [6] and in experiment [7] was above 100 µM each time. Also, the TGI in experiment [8], in [9], in experiment [10], in [11], in experiment [12] and in [14] was above 100 µM each time. In [13], this compound registered a TGI above 100 µM.
On to `CC#CCOC(=O)c1ccccc1OC(C)=O`, for which the TGI in [1], in [2], in [3], in [4], in [5] and in experiment [6] was above 100 µM in each case. Further, the TGI in experiment [7], in experiment [8], in experiment [9], in [10], in experiment [11] and in experiment [12] was above 100 µM each time. The TGI in experiment [13] is above 100 µM.
